In this experiment the target is ATX (human His-tagged) (Homo sapiens (Human), UniProt Q13822). In words: Human ATX enzyme inhibition assay (fluorescence quenching, MR121 substrate). As to conditions: 30 nM ATX, 1 μM MR121 substrate, 30° C., pH 8.0. The class given is biochemical. The method in brief:
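Fluorescence quenching assay with MR121/tryptophan-labelled substrate analogue in Tris-HCl buffer (140 mM NaCl, CaCl2, MgCl2, 0.01% Triton X-100, pH 8.0). Serially diluted compounds were preincubated 15 min at 30 °C with 30 nM ATX (final), then 1 µM substrate (final) added and incubated 15 min at 30 °C.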

On to `Cc1oc(-c2ccc(Cl)cc2)nc1C(=O)N1C[C@@H]2[C@H]3CN(C(=O)c4ccc5[nH]nnc5c4)C[C@H]3[C@@H]2C1` [Example 1.030, [(3aR,3bS,6aR,6bS)-5-(1H-benzotriazole-5-carbonyl)-octahydro-cyclobuta[1,2-c;3,4-c′]dipyrrol-2-yl]-[2-(4-chloro-phenyl)-5-methyl-oxazol-4-yl]-methanone], for which the IC50 (usually the concentration that gives 50% inhibition) stood at 104 nM.

As to `N#Cc1ccc2cc(C(=O)N3C[C@@H]4[C@H](C3)[C@H]3CN(C(=O)c5ccc6[nH]nnc6c5)C[C@@H]43)ccc2c1` [Example 1.007, 6-[(3aS,3bS,6aR,6bR)-5-(1H-benzotriazole-5-carbonyl)-octahydro-cyclobuta[1,2-c;3,4-c′]dipyrrole-2-carbonyl]-naphthalene-2-carbonitrile], the IC50 stood at 62 nM.

`O=C(c1ccc2[nH]nnc2c1)N1C[C@@H]2[C@H](C1)[C@H]1CN(C(=O)c3ccc4c(c3)[nH]c3ccc(Cl)cc34)C[C@@H]21` [Example 1.068, [(3aS,3bS,6aR,6bR)-5-(1H-benzotriazole-5-carbonyl)-octahydro-cyclobuta[1,2-c;3,4-c′]dipyrrol-2-yl]-(6-chloro-9H-carbazol-2-yl)-methanone]: the IC50 amounted to 14.3 nM.

In turn, `CCOc1cc(C(=O)N2C[C@@H]3[C@H](C2)[C@H]2CN(C(=O)c4ccc5[nH]nnc5c4F)C[C@@H]32)nc2ccccc12` [Example 1.110, [(3aS,3bR,6aS,6bR)-5-(4-ethoxy-quinoline-2-carbonyl)-octahydro-cyclobuta[1,2-c;3,4-c′]dipyrrol-2-yl]-(4-fluoro-1H-benzotriazol-5-yl)-methanone] displayed an IC50 of 32.5 nM.

In turn, `O=C(c1ccc2[nH]nnc2c1)N1C[C@@H]2[C@H](C1)[C@H]1CN(C(=O)c3cc4ccc(OC(F)(F)F)cc4[nH]3)C[C@@H]21` [Example 1.011, [(3aR,3bS,6aR,6bS)-5-(1H-benzotriazole-5-carbonyl)-octahydro-cyclobuta[1,2-c;3,4-c′]dipyrrol-2-yl]-(6-trifluoromethoxy-1H-indol-2-yl)-methanone] gave an IC50 of 8 nM.

Consider `O=C(/C=C/c1ccc(OC(F)(F)F)cc1)N1C[C@@H]2[C@H](C1)[C@H]1CN(C(=O)[C@@H]3CCc4[nH]nnc4C3)C[C@@H]21` [Example 1.006, (E)-1-[(3aS,3bS,6aR,6bR)-5-((R)-4,5,6,7-tetrahydro-1H-benzotriazole-5-carbonyl)-octahydro-cyclobuta[1,2-c;3,4-c′]dipyrrol-2-yl]-3-(4-trifluoromethoxy-phenyl)-propenone], for which the half-inhibitory concentration (IC50) came to 8 nM.

As for `CC(C)Oc1cc(C(=O)N2C[C@@H]3[C@H](C2)[C@H]2CN(C(=O)c4ccc5[nH]nnc5c4)C[C@@H]32)cc2c1CCCC2` [Example 1.078, [(3aS,3bS,6aR,6bR)-5-(1H-benzotriazole-5-carbonyl)-octahydro-cyclobuta[1,2-c;3,4-c′]dipyrrol-2-yl]-(4-isopropoxy-5,6,7,8-tetrahydro-naphthalen-2-yl)-methanone], the half-inhibitory concentration (IC50) turned out to be 3.5 nM.

Molecule `COCCCN1CC(C(=O)N2C[C@@H]3[C@H]4CN(C(=O)c5ccc6[nH]nnc6c5)C[C@H]4[C@@H]3C2)Cc2ccccc21` (stereo partly drawn) [Example 1.056, [(3aS,3bR,6aS,6bR)-5-(1H-benzotriazole-5-carbonyl)-octahydro-cyclobuta[1,2-c;3,4-c′]dipyrrol-2-ylH1-(3-methoxy-propyl)-1,2,3,4-tetrahydro-quinolin-3-yl]-methanone] returned a half-inhibitory concentration (IC50) of 29 nM.

On to `Cc1cc(C(=O)N2C[C@@H]3[C@H]4CN(C(=O)c5ccc6[nH]nnc6c5)C[C@H]4[C@@H]3C2)nc2ccccc12` [Example 1.047, [(3aR,3bS,6aR,6bS)-5-(1H-benzotriazole-5-carbonyl)-octahydro-cyclobuta[1,2-c;3,4-c′]dipyrrol-2-yl]-(4-methyl-quinolin-2-yl)-methanone], for which half-maximal inhibition (IC50) was put at 205 nM.

`COc1cccc(C(=O)N2C[C@@H]3[C@H](C2)[C@H]2CN(C(=O)c4ccc5[nH]nnc5c4)C[C@@H]32)c1` [Example 1.028, [(3aS,3bS,6aR,6bR)-5-(1H-benzotriazole-5-carbonyl)-octahydro-cyclobuta[1,2-c;3,4-c′]dipyrrol-2-yl]-(3-methoxy-phenyl)-methanone] had an IC50 of 2830 nM.

Turning to `COc1cc2ccccc2cc1C(=O)N1C[C@@H]2[C@H]3CN(C(=O)c4ccc5[nH]nnc5c4)C[C@H]3[C@@H]2C1` [Example 1.021, [(3aS,3bS,6aR,6bR)-5-(1H-benzotriazole-5-carbonyl)-octahydro-cyclobuta[1,2-c;3,4-c′]dipyrrol-2-yl]-(3-methoxy-naphthalen-2-yl)-methanone], the half-maximal inhibitory concentration (IC50) worked out at 265 nM.

Consider `O=C1CC(C(=O)N2C[C@@H]3[C@H]4CN(C(=O)c5ccc6[nH]nnc6c5)C[C@H]4[C@@H]3C2)Cc2ccccc21` (stereo partly drawn) [Example 1.041, 3-[(3aS,3bR,6aS,6bR)-5-(1H-benzotriazole-5-carbonyl)-octahydro-cyclobuta[1,2-c;3,4-c′]dipyrrole-2-carbonyl]-3,4-dihydro-2H-naphthalen-1-one], for which inhibition was half-maximal at 538 nM (IC50).

For the origin of these results see US10849881B2, “Octahydro-cyclobuta[1,2-c;3,4-c′]dipyrrol-2-yl” (Hoffmann-La Roche Inc., priority 2013, dated 2020).
